Source: US4292317A, “1,4-Dihydro-quinoline-3-carboxylic acid derivatives, process for their preparation and compositions containing them” (Laboratorie Roger Bellon, priority 1977, dated 1981)
Values after ≈ are worked out from the molar mass of the structure shown.

What was measured:
[1] = tested on: Pseudomonas aeruginosa No. 12; test: Systemic infection in mice; assay type: in vivo; settings: NO.12, po, 168 h
Procedure: (§1) The activity of the compounds according to the invention against systemic infections in mice, caused by Staphylococcus 50,774, Streptococcus pyogenes A 65, Pseudomonas aeruginosa No. 12 and Escherichia coli P 5101, has been studied.
(§2) The infections were set up by intraperitoneal injection of a suspension of the bacterial culture corresponding to the germ studied. The products were administered orally at the time of injection, and 6 hours later. […] Aureus and for 7 days for the other germs.
(§3) Oxolinic acid was used as the reference substance.

Escherichia coli P 5101 = test: Systemic infection in mice; assay type: in vivo; settings: P5101, po, 168 h
Procedure: as §1, §2, §3

Staph. aureus 50,774 = test: Systemic infection in mice; assay type: in vivo; settings: Staphylococcus aureus, po, 336 h
Procedure: as §1, §2, §3

Strept. pyogenes A. 65 = test: Systemic infection in mice; assay type: in vivo; settings: Streptococcus pyogenes, A.65, po, 168 h
Procedure: as §1, §2, §3

Ps. aeruginosa 72.345 = test: M.I.C. in vitro, nutrient agar dilution; assay type: cell-based; settings: Pseudomonas aeruginosa, 18 h; Table III; Pd. aeruginosa 72.345; read-out: M.I.C.
Procedure: (§4) After sterilisation at 120° C., the pH was 6.8.
(§5) The minimum inhibitory concentrations (M.I.C.) were determined by dilution of the test compounds in this mixture, the concentration ranging from 0.05 to 100 μg/cm^3 in a geometric progression with a factor of 2.
(§6) The inoculation of the dishes was carried out by means of a multiple inoculator with 10^-3 dilutions of 18 hour old broth cultures.
(§7) The dishes were placed in an oven at 37° C. and the readings were taken afer an incubation time of 18 hours. The M.I.C. was taken as the lowest concentration which inhibited a culture.

Staph. 209 P = test: M.I.C. in vitro, nutrient agar dilution; assay type: cell-based; settings: 18 h; Table III; Staph. 209 P; read-out: M.I.C.
Procedure: as §4, §5, §6, §7

Pr. mirabilis Nig = test: M.I.C. in vitro, nutrient agar dilution; assay type: cell-based; settings: Proteus mirabilis, 18 h; Table III; Pr. mirabilis Nig; read-out: M.I.C.
Procedure: as §4, §5, §6, §7

Staph. 9.144 = test: M.I.C. in vitro, nutrient agar dilution; assay type: cell-based; settings: 18 h; Table III; Staph. 9.144; read-out: M.I.C.
Procedure: as §4, §5, §6, §7

Pr. vulgaris 12-53 = test: M.I.C. in vitro, nutrient agar dilution; assay type: cell-based; settings: Proteus vulgaris, 1253, 18 h; Table III; Pr. vulgaris 12-53; read-out: M.I.C.
Procedure: as §4, §5, §6, §7

B. subtilis = test: M.I.C. in vitro, nutrient agar dilution; assay type: cell-based; settings: Bacillus subtilis, 18 h; Table III; B. Subtilis; read-out: M.I.C.
Procedure: as §4, §5, §6, §7

Arizona 6.211 = test: M.I.C. in vitro, nutrient agar dilution; assay type: cell-based; settings: 18 h; Table III; Arizona 6.211; read-out: M.I.C.
Procedure: as §4, §5, §6, §7

Ps. aeruginosa A.22 = test: M.I.C. in vitro, nutrient agar dilution; assay type: cell-based; settings: Pseudomonas aeruginosa, 18 h; Table III; Ps. aeruginosa A.22; read-out: M.I.C.
Procedure: as §4, §5, §6, §7

Esch. coli 54.127 O.M.S. = test: M.I.C. in vitro, nutrient agar dilution; assay type: cell-based; settings: Escherichia coli, 18 h; Table III; Esch. coli 54.127 O.M.S.; read-out: M.I.C.
Procedure: as §4, §5, §6, §7

Strepto A 561 = test: M.I.C. in vitro, nutrient agar dilution; assay type: cell-based; settings: 18 h; Table III; Strepto A 561
Procedure: as §4, §5, §6, §7

Esch. coli 111 B4 = test: M.I.C. in vitro, nutrient agar dilution; assay type: cell-based; settings: Escherichia coli, 18 h; Table III; Esch. coli 111 B4
Procedure: as §4, §5, §6, §7

S. oranienburg 1066 = test: M.I.C. in vitro, nutrient agar dilution; assay type: cell-based; settings: Salmonella enterica, 18 h; Table III; S. oranienburg 1066; read-out: M.I.C.
Procedure: as §4, §5, §6, §7

Bord. bronchis. 4.617 = test: M.I.C. in vitro, nutrient agar dilution; assay type: cell-based; settings: 18 h; Table III; Bord. bronchis. 4.617; read-out: M.I.C.
Procedure: as §4, §5, §6, §7

Strepto D.M. 19 = test: M.I.C. in vitro, nutrient agar dilution; assay type: cell-based; settings: 18 h; Table III; Strepto D.M. 19; read-out: M.I.C.
Procedure: as §4, §5, §6, §7

S. enteritidis Danysz = test: M.I.C. in vitro, nutrient agar dilution; assay type: cell-based; settings: Salmonella enterica, 18 h; Table III; S. enteritidis Danysz; read-out: M.I.C.
Procedure: as §4, §5, §6, §7

Pr. morganii A.236 = test: M.I.C. in vitro, nutrient agar dilution; assay type: cell-based; settings: Morganella morganii, 18 h; Table III; Pr. morganii A. 236; read-out: M.I.C.
Procedure: as §4, §5, §6, §7

Esch. coli 95 I.S.M. = test: M.I.C. in vitro, nutrient agar dilution; assay type: cell-based; settings: Escherichia coli, 18 h; Table III; Esch. coli 95 I.S.M.; read-out: M.I.C.
Procedure: as §4, §5, §6, §7

Sh. sonnei I.P.S. = test: M.I.C. in vitro, nutrient agar dilution; assay type: cell-based; settings: Shigella sonnei, 18 h; Table III; Sh. sonnei I.P.S.; read-out: M.I.C.
Procedure: as §4, §5, §6, §7

Providentia 0223 = test: M.I.C. in vitro, nutrient agar dilution; assay type: cell-based; settings: 18 h; Table III; Providentia 0223; read-out: M.I.C.
Procedure: as §4, §5, §6, §7

Serratia = test: M.I.C. in vitro, nutrient agar dilution; assay type: cell-based; settings: 18 h, Table III, read-out: M.I.C.
Procedure: as §4, §5, §6, §7

Klebs. pneum. 10.031 = test: M.I.C. in vitro, nutrient agar dilution; assay type: cell-based; settings: 18 h; Table III; Klebs. pneum. 10.031; read-out: M.I.C.
Procedure: as §4, §5, §6, §7

Salm. typhi 0901 = test: microbe, parasite or virus in culture; assay type: cell-based; settings: Salmonella enterica, 18 h; Table III; Salm. typhi 0901
Procedure: as §4, §5, §6, §7

SMILES | MIC (Ps. aeruginosa 72.345) [µg/mL] | MIC (Staph. 209 P) [µg/mL] | MIC (Pr. mirabilis Nig) [µg/mL] | MIC (Staph. 9.144) [µg/mL] | MIC (Pr. vulgaris 12-53) [µg/mL] | MIC (B. subtilis) [µg/mL] | MIC (Arizona 6.211) [µg/mL] | MIC (Ps. aeruginosa A.22) [µg/mL] | MIC (Esch. coli 54.127 O.M.S.) [µg/mL] | MIC (Strepto A 561) [µg/mL] | MIC (Esch. coli 111 B4) [µg/mL] | MIC (S. oranienburg 1066) [µg/mL] | MIC (Bord. bronchis. 4.617) [µg/mL] | MIC (Strepto D.M. 19) [µg/mL] | MIC (S. enteritidis Danysz) [µg/mL] | MIC (Pr. morganii A.236) [µg/mL] | MIC (Esch. coli 95 I.S.M.) [µg/mL] | MIC (Sh. sonnei I.P.S.) [µg/mL] | MIC (Providentia 0223) [µg/mL] | MIC (Serratia) [µg/mL] | other results
CCn1cc(C(=O)O)c(=O)c2cc(F)c(N3CCN(C)CC3)cc21 [Example 20, 1-Ethyl-6-fluoro-7-(4-methylpiperazinyl)-4-oxo-1,4-dihydro-quinoline-3-carboxylic acid] |  |  |  |  |  |  |  |  |  |  |  |  |  |  |  |  |  |  |  |  | ED50 [1]: 7.8 mg/kg; ED90 [1]: 11.5 mg/kg; ED50 (Escherichia coli P 5101): 1.8 mg/kg; ED90 (Escherichia coli P 5101): 2.8 mg/kg; ED50 (Staph. aureus 50,774): 2.9 mg/kg; ED90 (Staph. aureus 50,774): 9.3 mg/kg; ED50 (Strept. pyogenes A. 65): 65 mg/kg; ED90 (Strept. pyogenes A. 65): 103 mg/kg
C=CCn1cc(C(=O)O)c(=O)c2cc(F)c(N3CCN(C)CC3)cc21 [Example 34, 1-Allyl-6-fluoro-7-(4-methylpiperazinyl)-4-oxo-1,4-dihydro-quinoline-3-carboxylic acid] | 3.1 (≈ 8.98 µM) | 0.8 (≈ 2.32 µM) | 0.8 to 1.6 (≈ 2.32 to 4.63 µM) | 1.6 (≈ 4.63 µM) | 0.2 (≈ 0.579 µM) | 0.4 (≈ 1.16 µM) | 0.4 (≈ 1.16 µM) | 3.1 (≈ 8.98 µM) | 0.4 (≈ 1.16 µM) | 50 (≈ 145 µM) | 0.4 (≈ 1.16 µM) | 12.5 (≈ 36.2 µM) | 0.2 (≈ 0.579 µM) | 6.2 to 12.5 (≈ 18 to 36.2 µM) | 0.4 to 0.8 (≈ 1.16 to 2.32 µM) | 0.05 to 0.2 (≈ 0.145 to 0.579 µM) | 0.4 (≈ 1.16 µM) | 0.2 (≈ 0.579 µM) | 12.5 (≈ 36.2 µM) | 0.05 to 0.4 (≈ 0.145 to 1.16 µM) | MIC (Klebs. pneum. 10.031): 0.1 µg/mL (≈ 0.29 µM); MIC (Salm. typhi 0901): 0.1 µg/mL (≈ 0.29 µM)
C=Cn1cc(C(=O)O)c(=O)c2cc(F)c(N3CCN(C)CC3)cc21 [Example 41, 6-Fluoro-7-(4-methyl-piperazinyl)-4-oxo-1-vinyl-1,4-dihydro-quinoline-3-carboxylic acid] | 0.8 (≈ 2.41 µM) | 0.1 (≈ 0.302 µM) | 0.05 (≈ 0.151 µM) | 0.2 (≈ 0.604 µM) | 0.05 (≈ 0.151 µM) | 0.1 (≈ 0.302 µM) | 0.1 (≈ 0.302 µM) | 0.4 (≈ 1.21 µM) | 0.1 (≈ 0.302 µM) | 12.5 (≈ 37.7 µM) | 0.1 (≈ 0.302 µM) | 1.6 (≈ 4.83 µM) | 1.6 (≈ 4.83 µM) | 3.1 (≈ 9.36 µM) | 0.1 (≈ 0.302 µM) | 0.05 (≈ 0.151 µM) | 0.1 (≈ 0.302 µM) | 0.1 (≈ 0.302 µM) | 0.8 (≈ 2.41 µM) | 0.4 (≈ 1.21 µM) | MIC (Klebs. pneum. 10.031): 0.1 µg/mL (≈ 0.302 µM); MIC (Salm. typhi 0901): 0.1 µg/mL (≈ 0.302 µM)
